Assay results as given in US20160263131A1, “TREATMENT OF HEPATIC FIBROSIS USING AN INHIBITOR OF CBP/CATENIN” (priority 2013, published 2016).

System: NASH mice
Test: Liver hydroxyproline content in NASH mice
Assay type: in vivo, C57BL/6J mice
Settings: μg per mg total protein, mean±SD, Vehicle 0.79±0.19, no significant difference
Experimental: To quantify liver hydroxyproline content, frozen liver samples (35-45 mg) were processed by an alkaline-acid hydrolysis method as follows: the livers were defatted with 100% acetone, dried in the air, dissolved in 2N NaOH at 65° C., and autoclaved at 121° C. for 20 minutes. The lysed samples (400 μL) were acid-hydrolyzed with 400 μL of 6N HCl at 121° C. for 20 minutes, and neutralized with 400 μL of 4N NaOH containing 10 mg/mL activated carbon. AC buffer (2.2M acetic acid/0.48M citric acid, 400 μL) was added to the samples, followed by centrifugation to collect the supernatant. To construct a standard curve of hydroxyproline, serial dilutions of trans-4-hydroxy-Lproline (Sigma-Aldrich) were prepared starting at 16 μg/mL. The prepared samples and standards (each 400 μL) were mixed with 400 μL chloramine T solution (Wako Pure Chemical Industries, Japan) and incubated for 25 minutes at room temperature. The samples were then mixed with Ehrlich's solution (400 μL) and heated at 65° C. for 20 minutes to develop the color. After samples were cooled on ice and centrifuged to remove precipitates, the optical density of each supernatant was measured at 560 nm. The concentrations of hydroxyproline were calculated from the hydroxyproline standard curve. Protein concentrations of liver samples were determined using a BCA protein assay kit (Thermo Fisher Scientific, USA) and used to normalize the calculated hydroxyproline values. Hydroxyproline levels were expressed as μg per mg total protein.

## C[C@H]1[C@H]2N(C(=O)CN(C)N2C(=O)NCc2ccccc2)[C@@H](Cc2ccc(OP(=O)(O)O)cc2)C(=O)N1Cc1cccc2cccnc12 [Compound A, 4-(((6S,9S,9aS)-1-(benzylcarbamoyl)-2,9-dimethyl-4,7-dioxo-8-(quinolin-8-ylmethyl)octahydro-1H-pyrazino[2,1-c][1,2,4]triazin-6-yl)methyl)phenyl dihydrogen phosphate]
High dose 3 mg/kg/day s.c. infusion 9-13 wks
  Liver hydroxyproline content: 0.95 ± 0.22 µg/mg
Low dose 1 mg/kg/day s.c. infusion 9-13 wks
  Liver hydroxyproline content: 0.90 ± 0.26 µg/mg
